{
  "source": "paper PMC5218480",
  "about": "(PLoS ONE, 2017)",
  "system": "MV-4-11 cells",
  "test": "Gene expression microarray analysis (Affymetrix PrimeView) and GSEA",
  "type": "cell-based, human",
  "set-up": "RFU PODN (11730768_x_at) / Fold change /veh PODN (11730768_x_at) / RFU LINC00158 (11744669_a_at) / Fold change /veh LINC00158 (11744669_a_at) / RFU DUSP10 (11751237_a_at) / Fold change /veh DUSP10 (11751237_a_at) / RFU ID3 (11757404_x_at) / Fold change /veh ID3 (11757404_x_at) / RFU PLEKHG5 (11737974_s_at) / Fold change /veh PLEKHG5 (11737974_s_at) / RFU LRRC4B (11730491_at) / Fold change /veh LRRC4B (11730491_at) / RFU GIMAP4 (11747438_a_at) / Fold change /veh GIMAP4 (11747438_a_at) / RFU KRT8 (11758183_x_at) / Fold change /veh KRT8 (11758183_x_at) / RFU CNN1 (11734310_a_at) / Fold change /veh CNN1 (11734310_a_at) / RFU VPS37D (11726825_at) / Fold change /veh VPS37D (11726825_at) / RFU C10orf10 (11716522_x_at) / Fold change /veh C10orf10 (11716522_x_at) / RFU KIR2DL2 /// KIR2DL4 /// KIR2DL5A /// KIR2DL5B /// KIR2DS1 /// KIR2DS2 /// KIR2DS3 /// KIR2DS4 /// KIR3DL3 /// KIR3DL3 /// KIR3DS1 (11738374_at) / Fold change /veh KIR2DL2 /// KIR2DL4 /// KIR2DL5A /// KIR2DL5B /// KIR2DS1 /// KIR2DS2 /// KIR2DS3 /// KIR2DS4 /// KIR3DL3 /// KIR3DL3 /// KIR3DS1 (11738374_at) / RFU C1QL1 (11718748_at) / Fold change /veh C1QL1 (11718748_at) / RFU TMPRSS4 (11747572_a_at) / Fold change /veh TMPRSS4 (11747572_a_at) / RFU HAMP (11756126_x_at) / Fold change /veh HAMP (11756126_x_at) / RFU RNFT2 (11725882_a_at) / Fold change /veh RNFT2 (11725882_a_at) / RFU NR4A2 (11747474_a_at) / Fold change /veh NR4A2 (11747474_a_at) / RFU ABCC12 (11746883_a_at) / Fold change /veh ABCC12 (11746883_a_at) / RFU TMEM136 (11760407_x_at) / Fold change /veh TMEM136 (11760407_x_at) / RFU CLDN22 /// WWC2 (11732394_at) / Fold change /veh CLDN22 /// WWC2 (11732394_at) / RFU HLA-DPB1 (11760878_x_at) / Fold change /veh HLA-DPB1 (11760878_x_at) / RFU SPINT1 (11716480_a_at) / Fold change /veh SPINT1 (11716480_a_at) / RFU GAP43 (11754022_s_at) / Fold change /veh GAP43 (11754022_s_at) / RFU A4GNT (11735810_at) / Fold change /veh A4GNT (11735810_at) / RFU PRB3 (11715151_x_at) / Fold change /veh PRB3 (11715151_x_at) / RFU TUBB4B (11761932_at) / Fold change /veh TUBB4B (11761932_at) / RFU CAPN14 (11732068_a_at) / Fold change /veh CAPN14 (11732068_a_at) / RFU TMCC2 (11721928_a_at) / Fold change /veh TMCC2 (11721928_a_at) / RFU IRGQ (11745062_a_at) / Fold change /veh IRGQ (11745062_a_at) / RFU FAM174B (11720279_a_at) / Fold change /veh FAM174B (11720279_a_at) / RFU TMPRSS4 (11748680_a_at) / Fold change /veh TMPRSS4 (11748680_a_at) / RFU FAM212B (11763350_a_at) / Fold change /veh FAM212B (11763350_a_at) / RFU PLEKHG5 (11743358_a_at) / Fold change /veh PLEKHG5 (11743358_a_at) / RFU ZSCAN30 (11745921_a_at) / Fold change /veh ZSCAN30 (11745921_a_at) / RFU CMKLR1 (11741424_a_at) / Fold change /veh CMKLR1 (11741424_a_at) / RFU LOC101060620 /// MAPK8IP1 (11723275_at) / Fold change /veh LOC101060620 /// MAPK8IP1 (11723275_at) / RFU SPTSSB (11747773_x_at) / Fold change /veh SPTSSB (11747773_x_at) / RFU PRSS12 (11739890_at) / Fold change /veh PRSS12 (11739890_at) / RFU BIN1 (11741810_x_at) / Fold change /veh BIN1 (11741810_x_at) / RFU WNT11 (11732464_a_at) / Fold change /veh WNT11 (11732464_a_at) / RFU C10orf10 (11716521_a_at) / Fold change /veh C10orf10 (11716521_a_at) / RFU C5orf56 (11738089_at) / Fold change /veh C5orf56 (11738089_at) / RFU CYB561 (11721691_x_at) / Fold change /veh CYB561 (11721691_x_at) / RFU ANKRD19P (11752326_a_at) / Fold change /veh ANKRD19P (11752326_a_at) / RFU OR2T12 /// OR2T33 /// OR2T8 (11738714_s_at) / Fold change /veh OR2T12 /// OR2T33 /// OR2T8 (11738714_s_at) / RFU VCAN (11748164_a_at) / Fold change /veh VCAN (11748164_a_at) / RFU JSRP1 (11732532_at) / Fold change /veh JSRP1 (11732532_at) / RFU KRTAP10-11 (11738290_x_at) / Fold change /veh KRTAP10-11 (11738290_x_at) / RFU MYO3A (11730013_a_at) / Fold change /veh MYO3A (11730013_a_at) / RFU EBF3 (11725865_a_at) / Fold change /veh EBF3 (11725865_a_at) / RFU CAMK2N1 (11719241_x_at) / Fold change /veh CAMK2N1 (11719241_x_at) / RFU C5orf56 (11738088_a_at) / Fold change /veh C5orf56 (11738088_a_at) / RFU OLFML3 (11715873_a_at) / Fold change /veh OLFML3 (11715873_a_at) / RFU LOC100653217 /// NTM (11731650_a_at) / Fold change /veh LOC100653217 /// NTM (11731650_a_at) / RFU MAPK11 (11762145_a_at) / Fold change /veh MAPK11 (11762145_a_at) / RFU FIZ1 (11724087_x_at) / Fold change /veh FIZ1 (11724087_x_at) / RFU OASL (11726364_x_at) / Fold change /veh OASL (11726364_x_at) / RFU SOX15 (11748057_x_at) / Fold change /veh SOX15 (11748057_x_at) / RFU CD79A (11719716_a_at) / Fold change /veh CD79A (11719716_a_at) / RFU HIST1H1D (11736915_at) / Fold change /veh HIST1H1D (11736915_at) / RFU CASKIN2 (11723855_a_at) / Fold change /veh CASKIN2 (11723855_a_at) / RFU LOC730098 (11760151_x_at) / Fold change /veh LOC730098 (11760151_x_at) / RFU OR4N2 (11742367_at) / Fold change /veh OR4N2 (11742367_at) / RFU PRRT2 (11749266_a_at) / Fold change /veh PRRT2 (11749266_a_at) / RFU SNX32 (11753110_a_at) / Fold change /veh SNX32 (11753110_a_at) / RFU CDHR5 (11726645_a_at) / Fold change /veh CDHR5 (11726645_a_at) / RFU RCAN1 (11760418_a_at) / Fold change /veh RCAN1 (11760418_a_at) / RFU FAM167A (11723789_a_at) / Fold change /veh FAM167A (11723789_a_at) / RFU FAM26E (11764081_at) / Fold change /veh FAM26E (11764081_at) / RFU ISYNA1 (11749810_s_at) / Fold change /veh ISYNA1 (11749810_s_at) / RFU ACY1 (11761880_at) / Fold change /veh ACY1 (11761880_at) / RFU 11764098_at / Fold change /veh 11764098_at / RFU SAMD14 (11745864_x_at) / Fold change /veh SAMD14 (11745864_x_at) / RFU NPB (11741838_a_at) / Fold change /veh NPB (11741838_a_at) / RFU TMPRSS6 (11731388_a_at) / Fold change /veh TMPRSS6 (11731388_a_at) / RFU KRTAP10-2 (11738614_at) / Fold change /veh KRTAP10-2 (11738614_at) / RFU ARHGAP8 /// PRR5-ARHGAP8 (11727945_x_at) / Fold change /veh ARHGAP8 /// PRR5-ARHGAP8 (11727945_x_at) / RFU KRTAP5-7 /// NADSYN1 (11734609_at) / Fold change /veh KRTAP5-7 /// NADSYN1 (11734609_at) / RFU RASL12 (11751679_a_at) / Fold change /veh RASL12 (11751679_a_at) / RFU CDKN2B (11736163_a_at) / Fold change /veh CDKN2B (11736163_a_at) / RFU PRF1 (11729649_at) / Fold change /veh PRF1 (11729649_at) / RFU, ZNF638 /// ZNF638-IT1 / Fold change vs veh, ZNF638 /// ZNF638-IT1 / RFU, PANK3 / Fold change vs veh, PANK3 / RFU, SH3YL1 / Fold change vs veh, SH3YL1 / RFU, ZEB2 / Fold change vs veh, ZEB2 / RFU, NRIP1 / Fold change vs veh, NRIP1 / RFU, PTTG1IP / Fold change vs veh, PTTG1IP / RFU, CAPN2 / Fold change vs veh, CAPN2 / RFU, MED14 / Fold change vs veh, MED14 / RFU, SNORA58 / Fold change vs veh, SNORA58 / RFU, C1orf63 / Fold change vs veh, C1orf63 / RFU, LRRFIP1 / Fold change vs veh, LRRFIP1 / RFU, NDUFAF7 / Fold change vs veh, NDUFAF7 / RFU, SLC12A2 / Fold change vs veh, SLC12A2 / RFU, IBTK / Fold change vs veh, IBTK / RFU, ESF1 / Fold change vs veh, ESF1 / Fold change vs veh, TMEM50B / RFU, TAOK1 / Fold change vs veh, TAOK1 / RFU, ACBD3 / Fold change vs veh, ACBD3 / RFU, TMA16 / Fold change vs veh, TMA16 / RFU, RWDD3 / Fold change vs veh, RWDD3 / RFU, BCAT1 / Fold change vs veh, BCAT1 / RFU, EDEM3 / Fold change vs veh, EDEM3 / RFU, TMEM33 / Fold change vs veh, TMEM33 / RFU, WDR75 / Fold change vs veh, WDR75 / RFU, AHCTF1 / Fold change vs veh, AHCTF1 / RFU, TFRC / Fold change vs veh, TFRC / RFU, ZDHHC17 / Fold change vs veh, ZDHHC17 / RFU, NOM1 / Fold change vs veh, NOM1 / RFU, ARL8B / Fold change vs veh, ARL8B / RFU, ZBTB11 / Fold change vs veh, ZBTB11 / RFU, TAMM41 / Fold change vs veh, TAMM41 / RFU, KIAA1704 /// LOC100996395 / Fold change vs veh, KIAA1704 /// LOC100996395 / RFU, ING1 / Fold change vs veh, ING1 / RFU, TRMT61B / Fold change vs veh, TRMT61B / RFU, FUBP3 / Fold change vs veh, FUBP3 / RFU, TP53 / Fold change vs veh, TP53 / RFU, TNKS2 / Fold change vs veh, TNKS2 / RFU, ZFP14 / Fold change vs veh, ZFP14 / RFU, ACTR2 / Fold change vs veh, ACTR2 / RFU, PPP3R1 / Fold change vs veh, PPP3R1 / RFU, PIK3R1 / Fold change vs veh, PIK3R1 / RFU, HNRNPA1 / Fold change vs veh, HNRNPA1 / RFU, RNF170 / Fold change vs veh, RNF170 / RFU, ZNF28 / Fold change vs veh, ZNF28 / RFU, RNGTT / Fold change vs veh, RNGTT / RFU, OGT / Fold change vs veh, OGT / RFU, BRD1 / Fold change vs veh, BRD1 / RFU, MARS / Fold change vs veh, MARS / RFU, ZNF655 / Fold change vs veh, ZNF655 / RFU, FAHD1 / Fold change vs veh, FAHD1 / RFU, BDP1 / Fold change vs veh, BDP1 / RFU, LRRCC1 / Fold change vs veh, LRRCC1 / RFU, ARID1A / Fold change vs veh, ARID1A / RFU, ZNF146 / Fold change vs veh, ZNF146 / RFU, ZNF330 / Fold change vs veh, ZNF330 / RFU, GPN3 / Fold change vs veh, GPN3 / RFU, C9orf123 / Fold change vs veh, C9orf123 / RFU, N4BP2L2 / Fold change vs veh, N4BP2L2 / RFU, ARFIP1 / Fold change vs veh, ARFIP1 / RFU, FAM179B / Fold change vs veh, FAM179B / RFU, BCL10 / Fold change vs veh, BCL10 / RFU, UHRF1BP1L / Fold change vs veh, UHRF1BP1L / RFU, BET1 / Fold change vs veh, BET1 / RFU, CNOT2 / Fold change vs veh, CNOT2 / RFU, ZNF268 / Fold change vs veh, ZNF268 / Fold change vs veh, ZNF507 / RFU, DGCR2 / Fold change vs veh, DGCR2 / RFU, WDSUB1 / Fold change vs veh, WDSUB1 / Fold change vs veh, HSP90B1 /// MIR3652 / RFU, ADSS / Fold change vs veh, ADSS / RFU, GK / Fold change vs veh, GK / RFU, ZNF148 / Fold change vs veh, ZNF148 / RFU, TAF9 / Fold change vs veh, TAF9 / RFU, SLC1A5 / Fold change vs veh, SLC1A5 / RFU, SLMO2 / Fold change vs veh, SLMO2 / RFU, ABCC4 / Fold change vs veh, ABCC4 / RFU, LOC101060439 /// RAP1B / Fold change vs veh, LOC101060439 /// RAP1B / RFU, RFX7 / Fold change vs veh, RFX7 / RFU, GTPBP10 / Fold change vs veh, GTPBP10 / RFU, CNEP1R1 / Fold change vs veh, CNEP1R1 / RFU, BIVM-ERCC5 /// ERCC5 / Fold change vs veh, BIVM-ERCC5 /// ERCC5 / RFU, ILF3 / Fold change vs veh, ILF3 / RFU 11762660_at / Fold change /veh 11762660_at / RFU VCAN (11757783_s_at) / Fold change /veh VCAN (11757783_s_at) / RFU DDX43 (11728927_at) / Fold change /veh DDX43 (11728927_at) / RFU KRT8 (11758188_x_at) / Fold change /veh KRT8 (11758188_x_at) / RFU NKD1 (11759106_at) / Fold change /veh NKD1 (11759106_at) / RFU SRD5A1 (11742802_a_at) / Fold change /veh SRD5A1 (11742802_a_at) / RFU TPSAB1 /// TPSB2 (11721975_s_at) / Fold change /veh TPSAB1 /// TPSB2 (11721975_s_at) / RFU GSTM3 (11746129_a_at) / Fold change /veh GSTM3 (11746129_a_at) / RFU IL23R (11737362_x_at) / Fold change /veh IL23R (11737362_x_at) / RFU TMEM51 (11727254_a_at) / Fold change /veh TMEM51 (11727254_a_at) / RFU PIWIL2 (11732686_x_at) / Fold change /veh PIWIL2 (11732686_x_at) / RFU ORM1 (11744905_x_at) / Fold change /veh ORM1 (11744905_x_at) / RFU CCDC152 (11743942_at) / Fold change /veh CCDC152 (11743942_at) / RFU ECM1 (11717891_a_at) / Fold change /veh ECM1 (11717891_a_at) / RFU IL23R (11748794_a_at) / Fold change /veh IL23R (11748794_a_at) / RFU TNFAIP8L3 (11732012_x_at) / Fold change /veh TNFAIP8L3 (11732012_x_at) / RFU MBOAT4 (11741988_at) / Fold change /veh MBOAT4 (11741988_at) / RFU 11764193_at / Fold change /veh 11764193_at / RFU TMEM53 (11763286_at) / Fold change /veh TMEM53 (11763286_at) / RFU MAGEB2 (11727129_at) / Fold change /veh MAGEB2 (11727129_at) / RFU TMEM200A (11744735_a_at) / Fold change /veh TMEM200A (11744735_a_at) / RFU CCDC152 (11751479_a_at) / Fold change /veh CCDC152 (11751479_a_at) / RFU FAM211A (11726209_a_at) / Fold change /veh FAM211A (11726209_a_at) / RFU RGS16 (11746705_a_at) / Fold change /veh RGS16 (11746705_a_at) / RFU VCAN (11755009_s_at) / Fold change /veh VCAN (11755009_s_at) / RFU RHOB (11743442_s_at) / Fold change /veh RHOB (11743442_s_at) / RFU RGS16 (11720943_a_at) / Fold change /veh RGS16 (11720943_a_at) / RFU RGS16 (11720944_at) / Fold change /veh RGS16 (11720944_at) / RFU, VPS4B / Fold change vs veh, VPS4B / RFU, CREB1 / Fold change vs veh, CREB1 / RFU, DNAJC13 / Fold change vs veh, DNAJC13 / RFU, GNAQ / Fold change vs veh, GNAQ / RFU, CDK5R1 / Fold change vs veh, CDK5R1 / RFU, ZRANB3 / Fold change vs veh, ZRANB3 / RFU, CUL4A / Fold change vs veh, CUL4A / RFU, CCNY / Fold change vs veh, CCNY / RFU, UFL1 / Fold change vs veh, UFL1 / RFU, COG3 / Fold change vs veh, COG3 / RFU, DIAPH2 / Fold change vs veh, DIAPH2 / RFU, SKA2 / Fold change vs veh, SKA2 / RFU, AFF3 / Fold change vs veh, AFF3 / RFU, LMF1 / Fold change vs veh, LMF1 / RFU, IPO11 / Fold change vs veh, IPO11 / RFU, DFFB / Fold change vs veh, DFFB / RFU, FOXP1 / Fold change vs veh, FOXP1 / RFU, CARD8 / Fold change vs veh, CARD8 / RFU, STRN3 / Fold change vs veh, STRN3 / RFU, ADK / Fold change vs veh, ADK / RFU, RASSF2 / Fold change vs veh, RASSF2 / RFU, WIPF1 / Fold change vs veh, WIPF1 / RFU, LARP1B / Fold change vs veh, LARP1B / RFU, RASA1 / Fold change vs veh, RASA1 / RFU, RB1 / Fold change vs veh, RB1 / RFU, PPFIA1 / Fold change vs veh, PPFIA1 / RFU, MAT2A / Fold change vs veh, MAT2A / RFU, CCT5 / Fold change vs veh, CCT5 / RFU, WDR92 / Fold change vs veh, WDR92 / RFU, CUX1 / Fold change vs veh, CUX1 / RFU, TTC7A / Fold change vs veh, TTC7A / RFU, TMEM135 / Fold change vs veh, TMEM135 / RFU, DEPTOR / Fold change vs veh, DEPTOR / RFU, CPM / Fold change vs veh, CPM / RFU, DNAJB6 / Fold change vs veh, DNAJB6 / RFU, CACNA2D3 / Fold change vs veh, CACNA2D3 / RFU, DTX4 / Fold change vs veh, DTX4 / RFU, TFCP2 / Fold change vs veh, TFCP2 / RFU, GMCL1 /// GMCL1P1 / Fold change vs veh, GMCL1 /// GMCL1P1 / RFU, AEBP2 / Fold change vs veh, AEBP2 / RFU, SNHG1 /// SNORD22 /// SNORD25 /// SNORD26 /// SNORD27 /// SNORD28 /// SNORD29 /// SNORD31 / Fold change vs veh, SNHG1 /// SNORD22 /// SNORD25 /// SNORD26 /// SNORD27 /// SNORD28 /// SNORD29 /// SNORD31 / Fold change (Aza/veh), C12orf56 (ProbeSet 11735607_a_at) / Fold change (ACY-1035/veh), C12orf56 (ProbeSet 11735607_a_at) / Fold change (Aza/veh), FGFR1OP (ProbeSet 11751329_s_at) / Fold change (ACY-1035/veh), FGFR1OP (ProbeSet 11751329_s_at) / Fold change (Aza/veh), VPS36 (ProbeSet 11739960_a_at) / Fold change (ACY-1035/veh), VPS36 (ProbeSet 11739960_a_at) / RFU SYPL1 (11715823_x_at) / Fold change /veh SYPL1 (11715823_x_at) / RFU IGFBP7 (11715501_s_at) / Fold change /veh IGFBP7 (11715501_s_at) / RFU REEP3 (11722064_at) / Fold change /veh REEP3 (11722064_at) / RFU IGLL1 (11728026_x_at) / Fold change /veh IGLL1 (11728026_x_at): dose or concentration left out as unconfirmed",
  "details": "ProbeSet 11750457_a_at; LIST B",
  "data": [
    {"smiles": "Nc1ncn([C@@H]2O[C@H](CO)[C@@H](O)[C@H]2O)c(=O)n1", "note": "[azacitidine]", "values": [
      {"measurement": "Fold change vs veh, GTPBP10", "value": 0.84}
    ]}
  ]
}
